Legend:
Test in all cases: relative viability (nuclei count vs DMSO), 5 days (fraction); higher = more cells survive
[1] = compound: Cn1nnc2c(C(N)=O)ncn2c1=O [Temozolomide] + Cc1cc(Nc2cc(N3CCN(C)CC3)nc(Sc3ccc(NC(=O)C4CC4)cc3)n2)n[nH]1 [Tozasertib] (partner 0.1 µM)
Procedure, shortened: (§1)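 Nuclei were stained with Hoechst during a one-step fixation (final 0.05% Triton X-100, 1% formaldehyde, 1 ug/ml Hoechst) carried out 5 days after dosing, then counted on 4× images. The cells, lung cancer lines in 1536-well plates, had been dosed by pin tool the day after seeding with one drug alone or a fixed anchor-drug dose plus five library-drug doses (not always all listed) in √10 steps. Relative viability is the nuclei count in treated wells divided by that in vehicle wells, and each value is the median of duplicate plates.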

[2] = compound: Cn1nnc2c(C(N)=O)ncn2c1=O [Temozolomide] + O=C(CCCCCCC(=O)Nc1ccccc1)NO [Vorinostat] (partner 1 µM)
Procedure, shortened: as §1

[3] = compound: C[C@@H](C(=O)N[C@@H](C1CCCCC1)C(=O)N2CCC[C@H]2C(=O)N[C@@H]3[C@@H](CC4=CC=CC=C34)OCC#CC#CCO[C@@H]5CC6=CC=CC=C6[C@@H]5NC(=O)[C@@H]7CCCN7C(=O)[C@H](C8CCCCC8)NC(=O)[C@H](C)NC)NC [AZD5582] + Nc1ncn([C@H]2C[C@H](O)[C@@H](CO)O2)c(=O)n1 [Decitabine] (partner 2 µM)
Procedure, shortened: as §1

[4] = compound: C[C@@H](C(=O)N[C@@H](C1CCCCC1)C(=O)N2CCC[C@H]2C(=O)N[C@@H]3[C@@H](CC4=CC=CC=C34)OCC#CC#CCO[C@@H]5CC6=CC=CC=C6[C@@H]5NC(=O)[C@@H]7CCCN7C(=O)[C@H](C8CCCCC8)NC(=O)[C@H](C)NC)NC [AZD5582] + C[C@@H](Oc1cc(-c2cnn(C3CCNCC3)c2)cnc1N)c1c(Cl)ccc(F)c1Cl [Crizotinib] (partner 1 µM)
Procedure, shortened: as §1

Row | Cell Line | relative viability ([1]; first compound 0.2 µM) | relative viability ([1]; first compound 0.6325 µM) | relative viability ([1]; first compound 2 µM) | relative viability ([1]; first compound 6.325 µM) | relative viability ([1]; first compound 20 µM) | relative viability ([2]; first compound 0.2 µM) | relative viability ([2]; first compound 0.6325 µM) | relative viability ([2]; first compound 2 µM) | relative viability ([2]; first compound 6.325 µM) | relative viability ([2]; first compound 20 µM) | relative viability ([3]; first compound 0.001581 µM) | relative viability ([3]; first compound 0.005 µM) | relative viability ([3]; first compound 0.01581 µM) | relative viability ([3]; first compound 0.05 µM) | relative viability ([4]; first compound 0.001581 µM) | relative viability ([4]; first compound 0.005 µM) | relative viability ([4]; first compound 0.01581 µM) | relative viability ([4]; first compound 0.05 µM)
1 | HCC-44 | 0.795 | 0.953 | 1.06 | 0.848 | 0.996 | 1.15 | 1.09 | 1.02 | 1.16 | 1.06 | 0.828 | 0.786 | 0.845 | 0.681 | 0.5 | 0.457 | 0.793 | 0.378
2 | HCC-78 | 0.282 | 0.487 | 0.497 | 0.493 | 0.425 | 0.372 | 0.433 | 0.429 |  | 0.431 | 0.786 | 0.703 | 0.688 | 0.585 | 0.294 | 0.353 | 0.312 | 0.426
3 | HCC-366 | 0.097 | 0.0983 | 0.148 | 0.0779 | 0.15 | 0.443 | 0.349 | 0.307 | 0.315 | 0.351 | 0.346 | 0.37 | 0.386 | 0.395 | 0.476 | 0.517 | 0.56 | 0.635
4 | HCC-827 | 0.428 | 0.436 | 0.409 | 0.458 | 0.114 | 0.637 | 0.785 | 0.817 | 0.876 | 0.169 | 0.281 | 0.292 | 0.348 | 0.308 | 0.885 | 1.02 | 0.926 | 0.898
5 | HOP-62 | 0.534 | 0.418 | 0.367 | 0.376 | 0.348 | 0.873 | 0.58 | 0.675 | 0.456 | 0.795 | 0.213 | 0.209 | 0.247 | 0.213 | 0.781 | 1.05 | 1 | 0.875
6 | IA-LM |  |  |  |  |  | 0.842 | 1.05 | 0.895 | 0.952 | 1.03 |  |  |  |  | 0.546 | 0.63 | 0.818 | 0.699
7 | LC-2-ad | 0.429 | 0.517 | 0.505 | 0.41 | 0.422 | 0.824 | 0.717 | 0.726 | 0.733 | 0.668 | 0.822 | 0.847 | 0.765 | 0.764 | 0.457 | 0.454 | 0.384 | 0.391
8 | LCLC-97TM1 | 0.186 | 0.242 | 0.212 | 0.184 | 0.191 | 0.98 | 0.763 | 0.659 | 0.514 | 0.628 | 0.216 | 0.189 | 0.243 | 0.0933 |  | 0.269 | 0.338 | 0.257
9 | LCLC-103H | 0.486 | 0.481 | 0.566 | 0.456 | 0.413 | 0.943 | 0.814 | 0.881 | 0.732 | 0.762 | 0.698 | 0.798 | 0.718 | 0.724 | 1.1 | 1.08 | 1.02 | 0.777
10 | NCI-H522 | 0.449 | 0.586 | 0.56 | 0.538 | 0.595 | 0.762 | 1.02 | 1.02 | 0.973 | 0.92 | 0.624 | 0.711 | 0.624 | 0.641 |  |  |  | 
11 | NCI-H1299 |  |  |  |  |  |  |  |  |  |  |  |  |  |  | 0.895 | 0.895 | 0.994 | 0.901
12 | NCI-H1395 | 0.726 | 0.692 | 0.813 | 0.677 | 0.705 | 0.901 | 0.837 | 0.663 | 0.569 | 0.673 | 0.694 | 0.743 |  | 0.782 |  |  |  | 
13 | NCI-H1563 |  |  |  |  |  |  |  |  |  |  |  |  |  |  | 0.8 | 0.86 | 0.852 | 0.978
14 | NCI-H1623 |  | 0.421 | 0.365 | 0.475 | 0.293 |  |  |  |  |  |  |  |  |  |  |  |  | 
15 | NCI-H1648 |  | 0.525 | 0.397 | 0.448 | 0.435 |  | 0.436 | 0.624 | 0.457 | 0.375 | 0.502 | 0.528 |  | 0.466 |  |  |  | 
16 | NCI-H1792 |  |  |  |  |  |  |  |  |  |  | 0.503 | 0.622 | 0.526 | 0.672 | 0.903 | 1.01 | 0.908 | 1.08
17 | NCI-H1793 |  | 0.31 | 0.45 | 0.325 | 0.301 |  | 0.847 | 0.758 | 0.692 | 0.503 | 0.487 | 0.607 | 0.473 | 0.53 |  |  |  | 
18 | NCI-H2228 | 0.246 | 0.322 | 0.206 | 0.212 | 0.251 | 0.978 | 0.443 | 0.695 | 0.175 | 0.486 |  |  |  |  | 0.623 | 0.521 | 0.702 | 0.479
19 | NCI-H2342 | 0.49 | 0.57 | 0.492 | 0.598 | 0.346 | 0.673 | 0.833 | 0.9 | 0.742 | 0.811 | 0.692 | 0.835 | 0.698 | 0.702 |  |  |  | 
20 | SW 900 | 0.63 | 0.703 | 0.498 | 0.542 | 0.462 | 0.741 | 0.498 | 0.569 | 0.373 | 0.344 | 0.372 | 0.364 | 0.38 | 0.246 |  |  |  | 

Source: the supplement of paper PMC10307832
